In experiment [1] the test system is SKBR3 (PI3Kα-Wild Type) cell line. The experiment is described as follows: HTRF phospho-AKT(S473) cell assay in SKBR3 cells. The class given is cell-based, human. Conditions: Homo sapiens, SK-BR-3; SKBR3 (PI3Kα-Wild Type) cells, HTRF phospho-AKT(S473), 2 hours compound incubation, PDGF-BB stimulated. An outline of the steps: (§1)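 pAKT(S473) in lysates read by HTRF after a 2 h, 37 °C compound exposure (12-point 1:3 series, max 0.5% DMSO). SKBR3 (wild type, top 10 μM) received 70 ng/ml PDGF-BB during the final 15 min; T47D (H1047R, top 5 μM) was unstimulated. IC50 values derived from the dose-response.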
On the technique in general: In TR-FRET formats the signal depends on donor and acceptor labels being close together.

The subject of experiment [2] is T47D (PI3Kα-H1047R) cell line. Briefly: HTRF phospho-AKT(S473) cell assay in T47D cells. The class given is cell-based, human. As to conditions: Homo sapiens; T47D (PI3Kα-H1047R) cells, HTRF phospho-AKT(S473), 2 hours compound incubation. An outline of the steps:
as §1

Bounds are passed on as bounds.

The IC50 is the concentration that gives 50% inhibition. With `Cc1cc([C@@H](C)Nc2ccc(Cl)nc2C(=O)NS(C)(=O)=O)c2nc(N3C[C@@H]4[C@H](C3)[C@H]4n3nccc3C)n(C)c(=O)c2c1` [Compound 417, 6-chloro-3-(((R)-1-(3,6-dimethyl-2-((1R,5S,6S)-6-(5-methyl-1H-pyrazol-1-yl)-3-azabicyclo[3.1.0]hexan-3-yl)-4-oxo-3,4-dihydroquinazolin-8-yl)ethyl)amino)-N-(methylsulfonyl) picolinamide], the IC50 in experiment [1] was 1000 to 5000 nM; in experiment [2], less than 250 nM.
As for `Cc1cc([C@@H](C)Nc2ccc(Cl)nc2C(=O)NS(C)(=O)=O)c2nc(N3C[C@@H]4[C@H](C3)[C@H]4c3cncc(C)n3)n(C)c(=O)c2c1` [Compound 418, 6-chloro-3-(((R)-1-(3,6-dimethyl-2-((1R,5S,6R)-6-(6-methylpyrazin-2-yl)-3-azabicyclo[3.1.0]hexan-3-yl)-4-oxo-3,4-dihydroquinazolin-8-yl)ethyl)amino)-N-(methylsulfonyl) picolinamide], the IC50 in experiment [1] was 1000 to 5000 nM; in experiment [2], less than 250 nM.
Consider `Cc1cc([C@@H](C)Nc2ccc(Cl)nc2C(=O)NS(C)(=O)=O)c2nc(N3C[C@@H]4[C@H](C3)[C@H]4c3ccn(C)n3)n(C3CC3)c(=O)c2c1` [Compound 419, 6-chloro-3-(((R)-1-(3-cyclopropyl-6-methyl-2-((1R,5S,6R)-6-(1-methyl-1H-pyrazol-3-yl)-3-azabicyclo[3.1.0]hexan-3-yl)-4-oxo-3,4-dihydroquinazolin-8-yl)ethyl)amino)-N-(methylsulfonyl) picolinamide], for which the IC50 was in the range of 1000 to 5000 nM in experiment [1] and 250 to 500 nM in experiment [2].
Turning to `Cc1cc([C@@H](C)Nc2ccc(Cl)nc2C(=O)NS(C)(=O)=O)c2nc(N3CCC(c4n[nH]cc4F)CC3)n(C)c(=O)c2c1` [Compound 420, (R)-6-chloro-3-((1-(2-(4-(4-fluoro-1H-pyrazol-3-yl)piperidin-1-yl)-3,6-dimethyl-4-oxo-3,4-dihydroquinazolin-8-yl)ethyl)amino)-N-(methylsulfonyl) picolinamide], the IC50 lay within 1000 to 5000 nM in experiment [1] and 250 to 500 nM in experiment [2].
On to `Cc1cc([C@@H](C)Nc2ccc(Cl)nc2C(=O)NS(C)(=O)=O)c2nc(N3CCC(c4nn(C)c(C)c4F)CC3)n(C)c(=O)c2c1` [Compound 421, (R)-6-chloro-3-((1-(2-(4-(4-fluoro-1,5-dimethyl-1H-pyrazol-3-yl)piperidin-1-yl)-3,6-dimethyl-4-oxo-3,4-dihydroquinazolin-8-yl)ethyl)amino)-N-(methylsulfonyl) picolinamide], for which the IC50 in experiment [1] was not below 5000 nM; in experiment [2] it was 250 to 500 nM.
For `Cc1cc([C@@H](C)Nc2ccc(Cl)nc2C(=O)NS(C)(=O)=O)c2nc(N3CCC(c4cnc(C)c(F)c4)CC3)n(C)c(=O)c2c1` [Compound 422, (R)-6-chloro-3-((1-(2-(4-(5-fluoro-6-methylpyridin-3-yl)piperidin-1-yl)-3,6-dimethyl-4-oxo-3,4-dihydroquinazolin-8-yl)ethyl)amino)-N-(methylsulfonyl) picolinamide] the same measures were 1000 to 5000 nM and less than 250 nM.
For `Cc1cc([C@@H](C)Nc2ccc(Cl)nc2C(=O)NS(C)(=O)=O)c2nc(N3C[C@@H]4[C@H](C3)[C@H]4c3cnc(C)c(F)c3)n(C)c(=O)c2c1` [Compound 423, 6-chloro-3-(((R)-1-(2-((1R,5S,6S)-6-(5-fluoro-6-methylpyridin-3-yl)-3-azabicyclo[3.1.0]hexan-3-yl)-3,6-dimethyl-4-oxo-3,4-dihydroquinazolin-8-yl)ethyl)amino)-N-(methylsulfonyl) picolinamide], in that order: not below 5000 nM and 250 to 500 nM.
Consider `Cc1cc([C@@H](C)Nc2ccc(Cl)nc2C(=O)NS(C)(=O)=O)c2nc(N3C[C@@H]4[C@H](C3)[C@H]4c3c(F)cnn3C)n(C)c(=O)c2c1` [Compound 424, 6-chloro-3-(((R)-1-(2-((1R,5S,6R)-6-(4-fluoro-1-methyl-1H-pyrazol-5-yl)-3-azabicyclo[3.1.0]hexan-3-yl)-3,6-dimethyl-4-oxo-3,4-dihydroquinazolin-8-yl)ethyl)amino)-N-(methylsulfonyl) picolinamide], for which the IC50 in experiment [1] was not below 5000 nM; in experiment [2], 250 to 500 nM.
For `Cc1cc([C@@H](C)Nc2ccc(Cl)nc2C(=O)NS(C)(=O)=O)c2nc(N3CCC(c4c(C)cnn4C)CC3)n(C)c(=O)c2c1` [Compound 427, (R)-6-chloro-3-((1-(2-(4-(1,4-dimethyl-1H-pyrazol-5-yl)piperidin-1-yl)-3,6-dimethyl-4-oxo-3,4-dihydroquinazolin-8-yl)ethyl)amino)-N-(methylsulfonyl) picolinamide] the same measures were 1000 to 5000 nM and less than 250 nM.
On to `Cc1cc([C@@H](C)Nc2ccc(Cl)nc2C(=O)NS(C)(=O)=O)c2nc(N3CCC(c4cnc(C(F)F)cn4)CC3)n(C)c(=O)c2c1` [Compound 428, (R)-6-chloro-3-((1-(2-(4-(5-(difluoromethyl)pyrazin-2-yl)piperidin-1-yl)-3,6-dimethyl-4-oxo-3,4-dihydroquinazolin-8-yl)ethyl)amino)-N-(methylsulfonyl) picolinamide], for which the figures for the IC50 in experiment [1] and in experiment [2] were 1000 to 5000 nM and 250 to 500 nM, respectively.
For `Cc1cc([C@@H](C)Nc2ccc(Cl)nc2C(=O)NS(C)(=O)=O)c2nc(C3CCN(c4nn(C)cc4F)CC3)n(C)c(=O)c2c1` [Compound 429, (R)-6-chloro-3-((1-(2-(1-(4-fluoro-1-methyl-1H-pyrazol-3-yl)piperidin-4-yl)-3,6-dimethyl-4-oxo-3,4-dihydroquinazolin-8-yl)ethyl)amino)-N-(methylsulfonyl) picolinamide] the same measures were not below 5000 nM and 250 to 500 nM.
Take `Cc1cc([C@@H](C)Nc2ccc(Cl)nc2C(=O)NS(C)(=O)=O)c2nc(N3C[C@@H]4[C@H](C3)[C@H]4c3cn(C)nc3C)n(C)c(=O)c2c1` [Compound 430, 6-chloro-3-(((R)-1-(2-((1R,5S,6S)-6-(1,3-dimethyl-1H-pyrazol-4-yl)-3-azabicyclo[3.1.0]hexan-3-yl)-3,6-dimethyl-4-oxo-3,4-dihydroquinazolin-8-yl)ethyl)amino)-N-(methylsulfonyl) picolinamide]: the IC50 was 1000 to 5000 nM in experiment [1] and less than 250 nM in experiment [2].
Regarding `C[C@@H](Nc1ccc(Cl)nc1C(=O)NS(C)(=O)=O)c1cc(Cl)cc2c(=O)n(C)c(N3CCC(c4nn(C)cc4F)CC3)nc12` [Compound 431, (R)-6-chloro-3-((1-(6-chloro-2-(4-(4-fluoro-1-methyl-1H-pyrazol-3-yl)piperidin-1-yl)-3-methyl-4-oxo-3,4-dihydroquinazolin-8-yl)ethyl)amino)-N-(methylsulfonyl) picolinamide], the IC50 in experiment [1] lay within 1000 to 5000 nM; in experiment [2], 250 to 500 nM.
For `CCn1c(N2C[C@@H]3[C@H](C2)[C@H]3c2ccn(C)n2)nc2c([C@@H](C)Nc3ccc(Cl)nc3C(=O)NS(C)(=O)=O)cc(C)cc2c1=O` [Compound 432, 6-chloro-3-(((R)-1-(3-ethyl-6-methyl-2-((1R,5S,6R)-6-(1-methyl-1H-pyrazol-3-yl)-3-azabicyclo[3.1.0]hexan-3-yl)-4-oxo-3,4-dihydroquinazolin-8-yl)ethyl)amino)-N-(methylsulfonyl) picolinamide] the same measures were 1000 to 5000 nM and less than 250 nM.
As to `CCn1c(N2CCC(c3nn(C)cc3F)CC2)nc2c([C@@H](C)Nc3ccc(Cl)nc3C(=O)NS(C)(=O)=O)cc(C)cc2c1=O` [Compound 433, (R)-6-chloro-3-((1-(3-ethyl-2-(4-(4-fluoro-1-methyl-1H-pyrazol-3-yl)piperidin-1-yl)-6-methyl-4-oxo-3,4-dihydroquinazolin-8-yl)ethyl)amino)-N-(methylsulfonyl) picolinamide], the half-inhibitory concentration (IC50) in experiment [1] was not below 5000 nM; in experiment [2] it was less than 250 nM.
`Cc1cc([C@@H](C)Nc2ccc(Cl)nc2C(=O)NS(C)(=O)=O)c2nc(N3CCC(c4nc(C(F)F)n(C)n4)CC3)n(C)c(=O)c2c1` [Compound 434, (R)-6-chloro-3-((1-(2-(4-(5-(difluoromethyl)-1-methyl-1H-1,2,4-triazol-3-yl)piperidin-1-yl)-3,6-dimethyl-4-oxo-3,4-dihydroquinazolin-8-yl)ethyl)amino)-N-(methylsulfonyl) picolinamide]: the IC50 is not below 5000 nM in experiment [1] and 500 to 1000 nM in experiment [2].
For `Cc1cc([C@@H](C)Nc2ccc(Cl)nc2C(=O)NS(C)(=O)=O)c2nc(N3C[C@@H]4[C@H](C3)[C@H]4c3cc(C)n(C)n3)n(C)c(=O)c2c1` [Compound 435, 6-chloro-3-(((R)-1-(2-((1R,5S,6R)-6-(1,5-dimethyl-1H-pyrazol-3-yl)-3-azabicyclo[3.1.0]hexan-3-yl)-3,6-dimethyl-4-oxo-3,4-dihydroquinazolin-8-yl)ethyl)amino)-N-(methylsulfonyl) picolinamide], in that order: 1000 to 5000 nM and less than 250 nM.
On to `Cc1cc([C@@H](C)Nc2ccc(Cl)nc2C(=O)NS(C)(=O)=O)c2nc(N3CCC(c4cc(F)cnc4C)CC3)n(C)c(=O)c2c1` [Compound 436, (R)-6-chloro-3-((1-(2-(4-(5-fluoro-2-methylpyridin-3-yl)piperidin-1-yl)-3,6-dimethyl-4-oxo-3,4-dihydroquinazolin-8-yl)ethyl)amino)-N-(methylsulfonyl) picolinamide], for which the IC50 is 1000 to 5000 nM in experiment [1] and less than 250 nM in experiment [2].
With `Cc1cc([C@@H](C)Nc2ccc(Cl)nc2C(=O)NS(C)(=O)=O)c2nc(N3CCC(c4cccnc4C)CC3)n(C)c(=O)c2c1` [Compound 437, (R)-6-chloro-3-((1-(3,6-dimethyl-2-(4-(2-methylpyridin-3-yl)piperidin-1-yl)-4-oxo-3,4-dihydroquinazolin-8-yl)ethyl)amino)-N-(methylsulfonyl) picolinamide], the figures for the 50% inhibitory concentration (IC50) in experiment [1] and in experiment [2] were 1000 to 5000 nM and less than 250 nM, respectively.

Values taken from patent US12281122B1, “PI3K inhibitors” (Cogent Biosciences, Inc., priority 2023, dated 2025).
